Results as given in ChEMBL document CHEMBL4118202, “Chiral analogues of (+)-cyclazosin as potent α1B-adrenoceptor selective antagonist” (Bioorg Med Chem, 2018).

Target: T1, Alpha-1D adrenergic receptor (Homo sapiens, UniProt P25100)
T1 sequence (P25100 whole entry): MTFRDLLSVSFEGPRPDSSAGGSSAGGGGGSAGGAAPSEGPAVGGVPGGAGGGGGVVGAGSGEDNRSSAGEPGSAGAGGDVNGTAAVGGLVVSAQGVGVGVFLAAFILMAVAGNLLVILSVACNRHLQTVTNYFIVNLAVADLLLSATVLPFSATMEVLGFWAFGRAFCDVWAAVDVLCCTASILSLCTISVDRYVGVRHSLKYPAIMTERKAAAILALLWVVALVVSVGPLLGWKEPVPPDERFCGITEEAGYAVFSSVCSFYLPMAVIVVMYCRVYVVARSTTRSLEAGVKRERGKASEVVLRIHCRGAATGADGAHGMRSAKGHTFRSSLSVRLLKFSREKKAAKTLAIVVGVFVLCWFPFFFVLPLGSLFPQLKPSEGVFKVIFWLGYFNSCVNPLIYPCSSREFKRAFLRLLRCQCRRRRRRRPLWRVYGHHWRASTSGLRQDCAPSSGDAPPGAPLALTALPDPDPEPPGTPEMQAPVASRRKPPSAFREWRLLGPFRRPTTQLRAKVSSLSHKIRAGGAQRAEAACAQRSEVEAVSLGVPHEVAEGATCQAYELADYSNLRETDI
Experiment: Binding affinity to alpha1D adrenergic receptor (unknown origin)

Ki: 3.89 nM
SMILES: COc1cc2nc(N3CCN(C(=O)C4COc5ccccc5O4)[C@H]4CCCC[C@H]43)nc(N)c2cc1OC (single isomer, unassigned; (-)) [CYCLODOXAZOSIN]
